Patent US20240067617A1 (Albireo AB, priority 2022, published 2024)

What was measured:
hLBAT = target: T1, hLBAT (Homo sapiens, UniProt Q14973); experiment: LBAT (h/m) assay: 3H-taurocholic acid uptake in human LBAT-overexpressing cells; assay type: cell-based; settings: 0.3 μM 3H-taurocholic acid + 7.5 μM cold taurocholic acid, 20 minutes at 37° C.
T1 construct: expressed in transfected cells; kept under Geneticin selection
T1 sequence (Q14973 1-349): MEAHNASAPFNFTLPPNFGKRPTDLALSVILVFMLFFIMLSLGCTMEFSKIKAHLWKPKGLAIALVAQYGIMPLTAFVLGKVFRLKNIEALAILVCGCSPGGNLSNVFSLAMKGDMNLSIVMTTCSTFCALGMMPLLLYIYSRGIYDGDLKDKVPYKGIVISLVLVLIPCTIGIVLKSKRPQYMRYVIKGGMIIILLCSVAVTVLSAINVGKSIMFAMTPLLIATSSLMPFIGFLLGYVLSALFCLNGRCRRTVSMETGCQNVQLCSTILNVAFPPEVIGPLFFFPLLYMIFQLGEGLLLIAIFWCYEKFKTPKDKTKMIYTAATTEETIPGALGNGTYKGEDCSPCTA
Description: LBAT (h/m) Assay Protocol
20,000 cells (Human or Mouse LBAT-overexpressing cells) were seeded in 96-wells plate (Corning CLS3809) in 100 μL MEM-alpha medium (Gibco 12571-063) supplemented with 10% FBS (Gibco 10438026) containing Geneticin (Gibco 10131-027) (1 mg/mL) and incubated at 37° C. in 5% CO2 for 24 hours. After incubation, media was decanted from the wells and cells were washed two times with 300 μL of basal MEM-alpha medium (FBS-free). After decanting basal MEM-alpha medium each time, plates were tapped against paper towel to ensure maximum removal of residual media. For human LBAT, incubation mix was prepared by adding test inhibitor dilutions (3-fold serial dilution in DMSO (Sigma D2650), 10 points) in MEM-alpha (without FBS) containing 0.3 μM 3H-taurocholic acid (ARC ART-1368) and 7.5 μM cold taurocholic acid (Sigma T4009) (maintaining 0.2% final DMSO concentration). For mouse LBAT, incubation mix was prepared by adding test inhibitor dilutions (3-fold serial dilution in DMSO, 10 points) in MEM-alpha (without FBS) containing 0.3 μM 3H-taurocholic acid and 25 μM cold taurocholic acid maintaining 0.2% final DMSO concentration). 50 μL of incubation mix containing test inhibitors was then added to the wells (in duplicate) and the plates were incubated for 20 minutes in a CO2 incubator at 37° C. After incubation, the reaction was stopped by keeping the plates on ice water mix for 2-3 minutes and then the incubation mix was aspirated completely from the wells. The wells were washed two times with 250 μL of chilled unlabelled 1 mM taurocholic acid dissolved in HEPES (Gibco 15630080)-buffered (10 mM) HBSS (Gibco 14175079) (pH 7.4). The plates were tapped against a paper towel after every wash to ensure maximum removal of blocking buffer.
100 μL of MicroScint-20 (PerkinElmer 6013621) was added to the wells and kept overnight at RT before reading the plates in TopCount NXT™ Microplate Scintillation and Luminescence Counter from PerkinElmer under 3H Test protocol (set at 120 seconds reading time per well, with normal plate orientation).
(§1) Preparation of Test Compound Dilutions
(§2) All test compounds were provided in powder form at RT. 10 mM DMSO stocks of the test compounds were prepared, aliquoted and stored at −20° C. From the 10 mM DMSO stock of the compounds, a 3-fold serial dilution in DMSO was prepared to get a total of 10 dilutions of the test compounds. 0.5 μL of this dilution in DMSO was added to 250 μL of FBS-free basal media containing 3H-taurocholic acid and cold taurocholic acid to prepare the incubation mixture.

hIBAT = target: T2, hIBAT (Homo sapiens, UniProt Q12908); experiment: IBAT (h/m) assay: 3H-taurocholic acid uptake in human IBAT-overexpressing cells; assay type: cell-based; settings: 0.25 μM 3H-taurocholic acid + 5 μM cold taurocholic acid, 20 minutes at 37° C., highest test concentration 10 μM
T2 construct: expressed in transfected cells; kept under Puromycin selection
T2 sequence (Q12908 1-348): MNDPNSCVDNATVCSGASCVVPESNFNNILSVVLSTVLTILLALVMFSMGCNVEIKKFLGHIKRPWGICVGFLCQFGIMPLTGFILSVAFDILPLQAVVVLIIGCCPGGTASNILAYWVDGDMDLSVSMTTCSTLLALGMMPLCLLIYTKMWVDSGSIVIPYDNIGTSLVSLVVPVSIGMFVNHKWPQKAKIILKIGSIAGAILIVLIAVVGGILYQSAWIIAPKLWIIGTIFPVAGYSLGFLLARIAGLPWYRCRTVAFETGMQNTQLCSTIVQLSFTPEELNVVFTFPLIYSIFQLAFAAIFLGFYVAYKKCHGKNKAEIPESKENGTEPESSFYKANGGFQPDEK
Description: IBAT (h/m) Assay Protocol
10,000 cells (Human or Mouse IBAT-overexpressing cells) were seeded in 96-wells plate (Corning CLS3809) in 200 μL MEM-alpha medium (Gibco 12571-063) supplemented with 10% FBS (Gibco 10438026) containing Puromycin (Gibco A1113803) (10 μg/mL) and incubated at 37° C. in 5% CO2 for 48 hours. After incubation, media was decanted from the wells and cells were washed two times with 300 μL of basal MEM-alpha medium (FBS-free). After decanting basal MEM-alpha medium each time, plates were tapped against paper towel to ensure maximum removal of residual media. Test inhibitor dilutions (highest test concentration being 10 μM, 3-fold serial dilution, 10 points) prepared in DMSO (Sigma D2650) were added in incubation mix (maintaining 0.2% final DMSO concentration) containing 0.25 μM 3H-taurocholic acid (ARC ART-1368) and 5 μM of cold taurocholic acid (Sigma T4009). 50 μL of incubation mix containing test inhibitors was then added to the wells (in duplicate) and the plates were incubated for 20 minutes in a CO2 incubator at 37° C. After incubation, the reaction was stopped by keeping the plates on ice water mix for 2-3 minutes and then the incubation mix was aspirated completely from the wells. The wells were washed two times with 250 μL of chilled unlabelled 1 mM taurocholic acid dissolved in HEPES (Gibco 15630080)-buffered (10 mM) HBSS (Gibco 14175079) (pH 7.4). The plates were tapped against a paper towel after every wash to ensure maximum removal of blocking buffer.
100 μL of MicroScint-20 (PerkinElmer 6013621) was added to the wells and kept overnight at RT before reading the plates in TopCount NXT™ Microplate Scintillation and Luminescence Counter from PerkinElmer under 3H Test protocol (set at 120 seconds reading time per well).
as §1, §2

Row | IC50 (hLBAT) | IC50 (hIBAT) | SMILES
1 | 3820 nM | – | CCCCC1(CC)CN(c2ccccc2)c2cc(SC)c(CSCC(=O)O)cc2S(=O)(=O)C1 (racemic) [Example 1, 2-(((3-butyl-3-ethyl-7-(methylthio)-1,1-dioxido-5-phenyl-2,3,4,5-tetrahydro-1,5-benzothiazepin-8-yl)methyl)thio)acetic acid]
2 | 7260 nM | 0.8 nM | CCCCC1(C)CN(c2ccccc2)c2cc(SC)c(CSCC(=O)O)cc2S(=O)(=O)C1 (racemic) [Example 4, 2-(((3-butyl-3-methyl-7-(methylthio)-1,1-dioxido-5-phenyl-2,3,4,5-tetrahydro-1,5-benzothiazepin-8-yl)methyl)thio)acetic acid]
3 | > 2200 nM | 0.6 nM | CCCCC1(CC)CN(c2ccc(F)cc2)c2cc(SC)c(CSCC(=O)O)cc2S(=O)(=O)C1 (racemic) [Example 6, 2-(((3-butyl-3-ethyl-5-(4-fluorophenyl)-7-(methylthio)-1,1-dioxido-2,3,4,5-tetrahydro-1,5-benzothiazepin-8-yl)methyl)thio)acetic acid]
4 | > 3330 nM | 0.5 nM | CCCCC1(CC)CN(c2ccccc2)c2cc(SC)c(CSCC(=O)O)cc2S(=O)(=O)N1 (racemic) [Example 9, 2-(((3-butyl-3-ethyl-7-(methylthio)-1,1-dioxido-5-phenyl-2,3,4,5-tetrahydro-1,2,5-benzothiadiazepin-8-yl)methyl)thio)acetic acid]
5 | 34 nM | 70 nM | CCCCC1CN(c2ccccc2)c2cc(SC)c(CSCC(=O)O)cc2S(=O)(=O)N1C (racemic) [Example 11, 2-(((3-butyl-2-methyl-7-(methylthio)-1,1-dioxido-5-phenyl-2,3,4,5-tetrahydro-1,2,5-benzothiadiazepin-8-yl)methyl)thio)acetic acid]
6 | – | 2.3 nM | CCCCC1(CC)CN(c2ccccc2)c2cc(OC)c(CSCC(=O)O)cc2S(=O)(=O)C1 (racemic) [Example 13, 2-(((3-Butyl-3-ethyl-7-methoxy-1,1-dioxido-5-phenyl-2,3,4,5-tetrahydro-1,5-benzothiazepin-8-yl)methyl)thio)acetic acid]
7 | 176 nM | 60 nM | CCCCC1(CC)CN(c2ccc(F)cc2)c2cc(SC)c(CSC(C)(C)C(=O)O)cc2S(=O)(=O)C1 (racemic) [Example 15, 2-(((3-Butyl-3-ethyl-5-(4-fluorophenyl)-7-(methylthio)-1,1-dioxido-2,3,4,5-tetrahydro-1,5-benzothiazepin-8-yl)methyl)thio)-2-methylpropanoic acid]
8 | 135 nM | 404 nM | CCCCC1(C)CN(c2ccccc2)c2cc(SC)c(CSC(C)(C)C(=O)O)cc2S(=O)(=O)C1 (racemic) [Example 18, 2-(((3-Butyl-3-methyl-7-(methylthio)-1,1-dioxido-5-phenyl-2,3,4,5-tetrahydro-1,5-benzothiazepin-8-yl)methyl)thio)-2-methylpropanoic acid]
9 | 135 nM | 217 nM | CCCCC1(CC)CN(c2ccccc2)c2cc(OC)c(CSC(C)(C)C(=O)O)cc2S(=O)(=O)C1 (racemic) [Example 25, 2-(((3-butyl-3-ethyl-7-methoxy-1,1-dioxido-5-phenyl-2,3,4,5-tetrahydro-1,5-benzothiazepin-8-yl)methyl)thio)-2-methylpropanoic acid]
10 | > 10000 nM | 14 nM | CCCCC1(C)CN(c2ccccc2)c2cc(OC)c(CSCC(=O)O)cc2S(=O)(=O)C1 (racemic) [Example 27, 2-(((3-butyl-7-methoxy-3-methyl-1,1-dioxido-5-phenyl-2,3,4,5-tetrahydro-1,5-benzothiazepin-8-yl)methyl)thio)acetic acid]
11 | 107 nM | 558 nM | CCCCC1CN(c2ccc(F)cc2)c2cc(OC)c(CSCC(=O)O)cc2S(=O)(=O)N1C (racemic) [Example 29, 2-(((3-butyl-5-(4-fluorophenyl)-7-methoxy-2-methyl-1,1-dioxido-2,3,4,5-tetrahydro-1,2,5-benzothiadiazepin-8-yl)methyl)thio)acetic acid]
12 | 150 nM | 295 nM | CCCCC1(CC)CN(c2ccc(F)cc2)c2cc(OC)c(CSC(C)(C)C(=O)O)cc2S(=O)(=O)C1 (racemic) [Example 33, 2-(((3-butyl-3-ethyl-5-(4-fluorophenyl)-7-methoxy-1,1-dioxido-2,3,4,5-tetrahydro-1,5-benzothiazepin-8-yl)methyl)thio)-2-methylpropanoic acid]
13 | 362 nM | 3110 nM | CCCCC1CN(c2ccccc2)c2cc(OC)c(CSCC(=O)O)cc2S(=O)(=O)N1C (racemic) [Example 35, 2-(((3-butyl-7-methoxy-2-methyl-1,1-dioxido-5-phenyl-2,3,4,5-tetrahydro-1,2,5-benzothiadiazepin-8-yl)methyl)thio)acetic acid]
14 | 21 nM | > 10000 nM | CCCCC1CN(c2ccccc2)c2cc(OC)c(CSC(C)(C)C(=O)O)cc2S(=O)(=O)N1C (racemic) [Example 37, 2-(((3-butyl-7-methoxy-2-methyl-1,1-dioxido-5-phenyl-2,3,4,5-tetrahydro-1,2,5-benzothiadiazepin-8-yl)methyl)thio)-2-methylpropanoic acid]
15 | > 3330 nM | 2.5 nM | CCCCC1(CC)CN(c2ccc(F)cc2)c2cc(OC)c(CSCC(=O)O)cc2S(=O)(=O)C1 (racemic) [Example 39, 2-(((3-butyl-3-ethyl-5-(4-fluorophenyl)-7-methoxy-1,1-dioxido-2,3,4,5-tetrahydro-1,5-benzothiazepin-8-yl)methyl)thio)acetic acid]
16 | – | 1.7 nM | CCCCC1(CC)CN(c2ccccc2)c2cc(SC)c(CSCC(=O)O)cc2S(=O)(=O)N1 (single isomer, unassigned) [10, enantiomer 2]
17 | – | 3.2 nM | CCCCC1(CC)CN(c2ccccc2)c2cc(OC)c(CSCC(=O)O)cc2S(=O)(=O)N1 (single isomer, unassigned) [45, enantiomer 2]
